Earlier results as cited in patent US20240189234A1, “SILICON PARTICLES FOR DRUG DELIVERY” (NACAMED AS, priority 2021, published 2024).

conditions: calculated log P values from Foye's Principles of Medicinal Chemistry

Compound	log P
COc1ccc([C@@H]2Sc3ccccc3N(CCN(C)C)C(=O)[C@@H]2OC(C)=O)cc1 [diltiazem]	4.73
CN(C)C(=O)C(CCN1CCC(O)(c2ccc(Cl)cc2)CC1)(c1ccccc1)c1ccccc1 [loperamide]	4.15
CN(C)CCC(c1ccc(Br)cc1)c1ccccn1 (stereo not drawn) [brompheniramine]	3.24
CCN(CC)CCN1C(=O)CN=C(c2ccccc2F)c2cc(Cl)ccc21 [flurazepam]	4.84
CCN[C@@H](C)Cc1cccc(C(F)(F)F)c1 [dextrofenfluramine]	3.55
CCC(=O)O[C@](Cc1ccccc1)(c1ccccc1)[C@H](C)CN(C)C [propoxyphene]	4.10
CN1CCC(CN2c3ccccc3Sc3ccccc32)C1 (stereo not drawn) [methdilazine]	4.64
CCC(=O)C(CC(C)N1CCCCC1)(c1ccccc1)c1ccccc1 (stereo not drawn) [dipipanone]	5.10
CC[C@]1(O)C[C@@H]2CN(CCc3c([nH]c4ccccc34)[C@@](C(=O)OC)(c3cc4c(cc3OC)N(C)[C@H]3[C@@](O)(C(=O)OC)[C@H](OC(C)=O)[C@]5(CC)C=CCN6CC[C@]43[C@@H]65)C2)C1 [vinblastine]	5.92
CN(C)CCN1C(=O)c2ccccc2N(C)c2ccccc21 [dibenzepin]	3.26
Cc1ncc2n1-c1ccc(Cl)cc1C(c1ccccc1F)=NC2 [midazolam]	3.80
CC(C)(C)NC[C@H](O)COc1ccccc1C1CCCC1 [penbutolol]	4.02
CC[C@]1(O)C[C@H]2CN(CCc3c([nH]c4ccccc34)[C@@](C(=O)OC)(c3cc4c(cc3OC)N(C=O)[C@H]3[C@@](O)(C(=O)OC)[C@H](OC(C)=O)[C@]5(CC)C=CCN6CC[C@]43[C@@H]65)C2)C1 [vincristine]	5.75
iodoquinol	4.10
CNC1(c2ccccc2Cl)CCCCC1=O (stereo not drawn) [ketamine]	3.01
CCOC(=O)OC(C)OC(=O)[C@@H]1N2C(=O)[C@@H](NC(=O)[C@H](N)c3ccccc3)[C@H]2SC1(C)C (stereo partly drawn) [bacampicillin]	3.52
CN1CC[C@]23CCCC[C@H]2[C@H]1Cc1ccc(O)cc13 [leverphanol]	3.26
CCN(CC)CCOC(=O)C1(C2CCCCC2)CCCCC1 [dicyclomine]	4.64
OCCN1CCN(CCCN2c3ccccc3Sc3ccc(Cl)cc32)CC1 [perphenazine]	3.94
CCOC(=O)[C@H](CCc1ccccc1)N[C@@H](C)C(=O)N1CCC[C@H]1C(=O)O [enalapril]	3.25
CC(CNC1CCCCC1)OC(=O)c1ccccc1 (stereo not drawn) [hexylcaine]	3.65
COc1ccc(Cl)cc1C(=O)NCCc1ccc(S(=O)(=O)NC(=O)NC2CCCCC2)cc1 [glibenclamide]	3.08

conditions: oral

Compound	absolute bioavailability
CC(C)NCC(O)COc1cccc2ccccc12 (stereo not drawn) [propranolol]	26%
CCCCC(=O)N(Cc1ccc(-c2ccccc2-c2nnn[nH]2)cc1)[C@H](C(=O)O)C(C)C [valsartan]	25%
C[C@@H]1[C@H](O)[C@@H](C)/C=C/C=C/C=C/C=C/C=C/C=C/C=C/[C@H](O[C@@H]2O[C@H](C)[C@@H](O)[C@H](N)[C@@H]2O)C[C@@H]2O[C@](O)(C[C@@H](O)C[C@@H](O)[C@H](O)CC[C@@H](O)C[C@@H](O)CC(=O)O[C@H]1C)C[C@H](O)[C@H]2C(=O)O [amphotericin B]	very low
COc1ccc([C@@H]2Sc3ccccc3N(CCN(C)C)C(=O)[C@@H]2OC(C)=O)cc1 [diltiazem]	40%
CCOc1nc2cccc(C(=O)O)c2n1Cc1ccc(-c2ccccc2-c2nnn[nH]2)cc1 [candesartan]	40%
CC1(C)S[C@@H]2[C@H](NC(=O)COc3ccccc3)C(=O)N2[C@H]1C(=O)O [phenoxymethylpenicillin]	50%
CCOC(=O)[C@H](CCc1ccccc1)N[C@@H](C)C(=O)N1CCC[C@H]1C(=O)O [enalapril]	60%
CC[C@H]1OC(=O)[C@H](C)[C@@H](O[C@H]2C[C@@](C)(OC)[C@@H](O)[C@H](C)O2)[C@H](C)[C@@H](O[C@@H]2O[C@H](C)C[C@H](N(C)C)[C@H]2O)[C@](C)(O)C[C@@H](C)CN(C)[C@H](C)[C@@H](O)[C@]1(C)O [azithromycin]	40%
